Here are results for 14 compounds from patent US5227299A, “NADH kinase and a process for producing the same” (Noda Institute for Scientific Research, priority 1991, dated 1993).

Assay [1] relates to NADH kinase (the present enzyme). Nature of the assay: Inhibition, activation and stabilization of the present enzyme. The class given is biochemical, Pichia membranaefaciens.
A further assay has as its system NADH kinase B. The settings on record: Table 3, NADH kinase B; cited from earlier work.
Assay [2] has as its system NADH kinase (the present enzyme). The assay can be described thus: Substrate specificity of the present enzyme (NADH vs NAD+). The following applies: for Specificity (relative activity, NADH = 100): Table 3, present enzyme; for Relative activity (%): substrate NADH or NAD+, ATP, pH 8.5, 30° C., 20 minutes, percentage based on NADH. The format is biochemical, Pichia membranaefaciens. The protocol: The substrate specificity of the present enzyme was examined under the following reaction conditions. […]
To 0.9 ml of each of the above substrate solutions containing NADH or NAD^+ was added 0.1 ml of 23 U/ml of the present enzyme, and the reaction was carried out at 30° C. for 20 minutes. Then, the reaction was terminated by heat treatment at 100° C. for 2 minutes, and the denatured protein was removed, after which the amount of NADPH or NADP^+ produced by the reaction of the corresponding substrate was measured as follows. As a control solution, there was used a mixture of each substrate solution and the present enzyme in which the reaction had been terminated immediately after mixing them.
With 1 ml of each of the reaction solutions obtained in the above was mixed 1 ml of a color-producing solution consisting of 10 mM G-6-P, 50 mM HEPPS buffer (pH 8.0), 10 mM magnesium chloride, 0.1% bovine serum albumin, 2.5 IU/ml G-6-P dehydrogenase (NADP^+ -dependent), 5 IU/ml diaphorase and 250 μM 2,6-dichlorophenolindophenol. The resulting mixture was immediately introduced into a constant-temperature cuvette of STASAR III spectrophotometer of Gilford and subjected to reaction at 30° C. Simultaneously with the reaction, the change of absorbance at 600 nm was measured with the lapse of time, and the difference (ΔOD600 nm /min) between absorbance values 1 minute and 2 minutes after the initiation of the coloration reaction was taken as a measured value. As to relative activity (%), a measured value (ΔOD600 nm /min) obtained by using NAD^+ as a substrate was shown as a percentage based on a measured value (ΔOD600 nm /min) obtained by using NADH as a substrate.

A further assay concerns NADH kinase A. The following applies: Table 3, NADH kinase A; cited from earlier work.

For the compound `[Cd+2]` [Cd^2+], in assay [1], the “Inhibition of the present enzyme” value is given as “strongly inhibited”.

As to `[Cu+2]` [Cu^2+], in assay [1], the “Inhibition of the present enzyme” value is “strongly inhibited”.

For the compound `[Hg+2]` [Hg^2+], the “Inhibition of the present enzyme” value in assay [1] is listed as “strongly inhibited”.

For `[Mg+2]` [Mg^2+], in assay [1], the “Stabilization of the present enzyme” value is recorded as “stabilized”.

As for `[Mn+2]` [Mn^2+], the “Stabilization of the present enzyme” value in assay [1] is reported as “stabilized”.

For `NC(=O)C1=CN([C@@H]2O[C@H](COP(=O)(O)OP(=O)(O)OC[C@H]3O[C@@H](n4cnc5c(N)ncnc54)[C@H](O)[C@@H]3O)[C@@H](O)[C@H]2O)C=CC1` [NADH], the “Specificity (relative activity, NADH = 100)” value with NADH kinase B is 100. Moreover, in assay [2], the “Action of the present enzyme on the substrate” value was “very specific”; the “Specificity (relative activity, NADH = 100)” value came out at 100; the “Relative activity (%)” value was found to be 100%. For the same compound, in the assay with NADH kinase A, the “Specificity (relative activity, NADH = 100)” value is listed as 100.

Turning to `NC(=O)c1ccc[n+]([C@@H]2O[C@H](COP(=O)([O-])OP(=O)(O)OC[C@H]3O[C@@H](n4cnc5c(N)ncnc54)[C@H](O)[C@@H]3O)[C@@H](O)[C@H]2O)c1` [NAD^+], the “Specificity (relative activity, NADH = 100)” value with NADH kinase B is recorded as 1.6. In addition, in assay [2], the “Action of the present enzyme on the substrate” value is reported as “hardly acts”; the “Specificity (relative activity, NADH = 100)” value is listed as 0.9; the “Relative activity (%)” value worked out at 0.9%. For the same compound, the “Specificity (relative activity, NADH = 100)” value with NADH kinase A was 1.7.

For `[Pb+2]` [Pb^2+], in assay [1], the “Inhibition of the present enzyme” value was “strongly inhibited”.

Turning to `CCCCCCCCCCCCOS(=O)(=O)[O-].[Na+]` [SDS, sodium lauryl sulfate, reference compound], in assay [1], the “Inhibition of the present enzyme” value is on record as “strongly inhibited”.

In the case of `[Zn+2]` [Zn^2+], the “Inhibition of the present enzyme” value in assay [1] is on record as “strongly inhibited”.

On to `N.N.O=S(=O)(O)O` [ammonium sulfate], for which, in assay [1], the “Stabilization of the present enzyme” value is listed as “stabilized”.

Regarding `O=C(O)c1cc[c]([Hg][Cl])cc1` [p-CMB, p-chloromercuribenzoic acid, reference compound], the “Inhibition of the present enzyme” value in assay [1] is on record as “strongly inhibited”.

As for `OC[C@H]1O[C@@](CO)(O[C@H]2O[C@H](CO)[C@@H](O)[C@H](O)[C@H]2O)[C@@H](O)[C@@H]1O` [saccharose], in assay [1], the “Stabilization of the present enzyme” value is given as “stabilized”.

Turning to `CC(=O)O` [sodium acetate], in assay [1], the “Activation of the present enzyme” value is listed as “activated”.
